From patent US20070244006A1, “Fungicidal Mixtures” (priority 2004, published 2007)

Columns and labels:
Plasmopara viticola = assay: Activity against peronospora of grapevines caused by Plasmopara viticola, 9 day protective application; format: in vivo; conditions: potted vines, inoculated 9 days after treatment
Description: (§1) The active compounds, separately or jointly, were prepared as a stock solution comprising 0.25% by weight of active compound in acetone or DMSO. 1% by weight of the emulsifier Uniperol® EL (wetting agent having emulsifying and dispersant action based on ethoxylated alkylphenols) was added to this solution, and the mixture was diluted with water to the desired concentration.
Leaves of potted vines were sprayed to runoff point with an aqueous suspension having the concentration of active compound stated below. To be able to assess the persistency of the substances, the plants were, after the spray coating had dried on, placed in a greenhouse for 9 days. Only then were the leaves inoculated with an aqueous zoospore suspension of Plasmopara viticola. The grapevines were then initially placed in a water-vapor-saturated chamber at 24° C. for 48 hours and then in a greenhouse at temperatures between 20 and 30° C. for 5 days. After this time, the plants were again placed in a humid chamber for 16 hours, to promote sporangiophore eruption. The extent of the development of the infection on the undersides of the leaves was then determined visually.
(§2) Evaluation was carried out analogously to example 1.

Pyrenophora teres = assay: Activity against net blotch of barley caused by Pyrenophora teres, 1 day protective application; format: in vivo, Pyrenophora [syn. Drechslera] teres; conditions: barley seedlings cultivar Hanna, inoculated 24 hours after treatment
Description: as §1
Leaves of potted barley seedlings of the cultivar “Hanna” were sprayed to runoff point with an aqueous suspension having the concentration of active compound stated below. 24 hours after the spray coating had dried on, the test plants were inoculated with an aqueous spore suspension of Pyrenophora [syn. Drechslera] teres, the net blotch pathogen. The test plants were then placed in a greenhouse at temperatures between 20 and 24° C. and at 95 to 100% relative atmospheric humidity. After 6 days, the extent of the development of the disease was determined visually in % infection of the entire leaf area.
as §2

Venturia inaequalis = assay: Activity against scab on apple leaves caused by Venturia inaequalis, protective application; format: in vivo; conditions: inoculated 12 days after treatment
Description: as §1
Leaves of apples were sprayed to runoff point with an aqueous suspension having the concentration of active compound stated below. After 12 days, the treated plants were inoculated with an aqueous spore suspension of Venturia inaequalis. The apples were then initially placed in a water-vapor-saturated chamber at 24° C. for 48 hours and then in a greenhouse at temperatures between 20 and 24° C. for 20 days. The extent of the development of the infection on the upper sides of the leaves was then determined visually.
The visually determined percentages of infected leaf areas were converted into efficacies in % of the untreated control:
The efficacy (E) is calculated as follows using Abbot's formula: E=(1−α/β)[…] α corresponds to the fungal infection of the treated plants in % and β corresponds to the fungal infection of the untreated (control) plants in % An efficacy of 0 means that the infection level of the treated plants corresponds to that of the untreated control plants; an efficacy of 100 means that the treated plants were not infected.
The expected efficacies of mixtures of active compounds were determined using Colby's formula (Colby, S. R. “Calculating synergistic and antagonistic responses of herbicide Combinations”, Weeds, 15, 20-22, 1967) and compared with the observed efficacies.
Colby's formula: E=x+y−x·y/100
E expected efficacy, expressed in % of the untreated control, when using the mixture of the active compounds A and B at the concentrations a and b x efficacy, expressed in % of the untreated control, when using the active compound A at the concentration a y efficacy, expressed in % of the untreated control, when using the active compound B at the concentration b

| Structure (SMILES) | Efficacy in % of the untreated control (Plasmopara viticola; 50 ppm in the spray liquor) [%] | Efficacy in % of the untreated control (Pyrenophora teres; 3.1 ppm in the spray liquor) [%] | Efficacy in % of the untreated control (Venturia inaequalis; 50 ppm in the spray liquor) [%] | further results |
| --- | --- | --- | --- | --- |
| CC1CCN(c2c(-c3c(F)cc(F)cc3F)c(Cl)nc3ncnn23)CC1 [I-1, 5-chloro-7-(4-methylpiperidin-1-yl)-6-(2,4,6-trifluorophenyl)-[1,2,4]triazolo[1,5-a]pyrimidine] | 25 | 66 | 48 | Efficacy in % of the untreated control (Plasmopara viticola; 25 ppm in the spray liquor): 13%; Efficacy in % of the untreated control (Venturia inaequalis; 25 ppm in the spray liquor): 18% |
| C[N+](C)(C)CCCl [chlormequat chloride (IIc.1), chlormequat chloride] | – | 0 | – | Efficacy in % of the untreated control (Pyrenophora teres; 6.3 ppm in the spray liquor): 0% |
| CC(=NNC(=O)Nc1cc(F)cc(F)c1)c1ncccc1C(=O)O [diflufenzopyr (III.1), 2-{1-[4-(3,5-difluorophenyl)semicarbazono]ethyl}nicotinic acid] | – | – | – | Efficacy in % of the untreated control (Pyrenophora teres; 0.031 ppm in the spray liquor): 0% |
| CCC(=O)C1=C([O-])CC(C(=O)[O-])CC1=O.[Ca+2] (stereo not drawn) [prohexadione-Ca (IIa.1), prohexadione-Ca] | 0 | – | 4 | Efficacy in % of the untreated control (Plasmopara viticola; 100 ppm in the spray liquor): 0%; Efficacy in % of the untreated control (Venturia inaequalis; 100 ppm in the spray liquor): 29% |
